# Laboratory results from ChEMBL document CHEMBL6092209, “New Discorhabdin D Analogues from Latrunculia spp. Sponges” (2024).
# Calls of active or inactive are those of the source. No cut-off for these calls is given here.
# Key:
# [1] = test system: Panel NCI-60 (60 carcinoma cell lines); assay: Growth inhibition of human Panel NCI-60 (60 carcinoma cell lines) cells; assay type: functional
# [2] = test system: Panel NCI-60 (60 carcinoma cell lines); assay: Growth inhibition of human Panel NCI-60 (60 carcinoma cell lines) cells at 10 uM; assay type: functional, cell-based
Structure (SMILES),GI50 [1],Activity [2]
N[C@@H](CS[C@H]1[C@H]2C(=O)C=C3S[C@H]4C[C@]31C1=C(N4)C(=O)c3[nH]cc4c3C1=[N+]2CC4)C(=O)O,> 10 µM,inactive
COC(=O)CN[C@H]1[C@H]2C(=O)C=C3S[C@H]4C[C@]31C1=C(N4)C(=O)c3[nH]cc4c3C1=[N+]2CC4,2.45 µM,
N[C@@H](CS[C@H]1[C@H]2C(=O)C=C3S[C@H]4C[C@]31C1=C(N4)C(=O)c3[nH]cc4c3C1=[N+]2CC4)C(=O)NCC(=O)O,> 10 µM,inactive
O=C1C2=C3C4=[N+](CCc5c[nH]c1c54)[C@H]1C[C@@]34C[C@@H](N2)SC4=CC1=O,0.8 µM,
O=C1C=C(S[C@H]2[C@H]3C(=O)C=C4S[C@H]5C[C@]42C2=C(N5)C(=O)c4[nH]cc5c4C2=[N+]3CC5)[C@]2(C=C1Br)CCNC1=C2C2=NCCc3c[nH]c(c32)C1=O,4.8 µM,
O=C1C2=C3C4=[N+](CCc5c[nH]c1c54)[C@@H]1C(=O)C=C4S[C@@H](C[C@@]43[C@H]1O)N2,0.79 µM,
N[C@H](CS[C@H]1[C@H]2C(=O)C=C3S[C@H]4C[C@]31C1=C(N4)C(=O)c3[nH]cc4c3C1=[N+]2CC4)C(=O)O,> 10 µM,inactive
Cn1cnc(S[C@H]2[C@H]3C(=O)C=C4S[C@H]5C[C@]42C2=C(N5)C(=O)c4[nH]cc5c4C2=[N+]3CC5)c1C[C@H](N)C(=O)O,> 10 µM,
N[C@@H](CCC(=O)N[C@@H](CS[C@H]1[C@H]2C(=O)C=C3S[C@H]4C[C@]31C1=C(N4)C(=O)c3[nH]cc4c3C1=[N+]2CC4)C(=O)NCC(=O)O)C(=O)O,> 10 µM,inactive
COc1cccc2c1C(=O)c1c(O)c3c(c(O)c1C2=O)C[C@@](O)(C(=O)CO)C[C@@H]3O[C@H]1C[C@H](N)[C@H](O)[C@H](C)O1 [DOXORUBICIN],0.12 µM,
O=C(O)CN[C@H]1[C@H]2C(=O)C=C3S[C@H]4C[C@]31C1=C(N4)C(=O)c3[nH]cc4c3C1=[N+]2CC4,16.9 µM,
